Target: T1, KCNQ2/3 channels (Homo sapiens, UniProt O43525+O43526)
T1 construct: expressed in transfected cells; host or cells: CHO-K1 cells, kept under selection antibiotics
Experiment: Fluorescence assay using a voltage sensitive dye (fluorimetry)
Format: cell-based
Conditions: for Emax at 10 µM: relative to retigabine = 100%, read-out: Fluorimetry % efficacy @ 10 μM (retigabine = 100%); for Emax at 10 µM / EC50: CHO-K1 cells expressing KCNQ2/3; for KCNQ2/3 stimulation at 10 μM: Table 4 comparison experiments; for activity towards the KCNQ2/3 receptor: nitrogen atom introduced into the phenyl ring of the benzoisoxazole structure
Description: […] CHO-K1 cells expressing KCNQ2/3 channels are cultivated adherently at 37° C., 5% CO2 and 95% humidity in cell culture bottles (e.g. 80 cm^2 TC flasks, Nunc) with DMEM-high glucose (Sigma Aldrich, D7777) including 10% FCS (PAN Biotech, e.g. 3302-P270521) or alternatively MEM Alpha Medium (1×, liquid, Invitrogen, #22571), 10% fetal calf serum (FCS) (Invitrogen, #10270-106, heat-inactivated) and the necessary selection antibiotics.
Before being sown out for the measurements, the cells are washed with a 1×DPBS buffer without Ca^2+/Mg^2+ (e.g. Invitrogen, #14190-094) and detached from the bottom of the culture vessel by means of Accutase (PAA Laboratories, #L11-007) (incubation with Accutase for 15 min at 37° C.). The cell count then present is determined using a CASY™ cell counter (TCC model, Scharfe System) in order subsequently to apply, depending on the density optimization for the individual cell line, 20,000-30,000 cells/well/100 μl of the described nutrient medium to 96-well measuring plates of the Corning™ CelIBIND™ type (Flat Clear Bottom Black Polystyrene Microplates, #3340). Incubation is then carried out for one hour at room temperature, without gassing or adjusting the humidity, followed by incubation for 24 hours at 37° C., 5% CO2 and 95% humidity.
The voltage-sensitive fluorescent dye from the Membrane Potential Assay Kit (Red™ Bulk format part R8123 for FLIPR, MDS Analytical Technologies™) is prepared by dissolving the contents of a vessel Membrane Potential Assay Kit Red Component A in 200 ml of extracellular buffer (ES buffer, 120 mM NaCl, 1 mM KCl, 10 mM HEPES, 2 mM CaCl2, 2 mM MgCl2, 10 mM glucose; pH 7.4). After removal of the nutrient medium, the cells are washed with 200 μl of ES buffer, then covered with a layer of 100 μl of the dye solution prepared above and incubated for 45 min at room temperature with the exclusion of light.
The fluorescence measurements are carried out with a BMG Labtech FLUOstar™ BMG Labtech NOVOstar™ or BMG Labtech POLARstar™ instrument (525 nm excitation, 560 nm emission, Bottom Read mode). After incubation of the dye, 50 μl of the test substances in the desired concentrations, or 50 μl of ES buffer for control purposes, are introduced into separate cavities of the measuring plate and incubated for 30 min at room temperature while being shielded from light. The fluorescence intensity of the dye is then measured for 5 min and the fluorescence value F1 of each well is thus determined at a given, constant time. […] of a 100 mM KCl solution (final concentration […]) are then added to each well. The change in fluorescence is subsequently measured until all the relevant measured values have been obtained (mainly 5-30 min). At a given time after KCl application, a fluorescence value F2 is determined, in this case at the time of the fluorescence peak.
For calculation, the fluorescence intensity F2 is compared with the fluorescence intensity F1, and the agonistic activity of the target compound on the potassium channel is determined therefrom. F2 and F1 are calculated as follows: […]
Calculations of EC50 values are carried out with the aid of ‘Prism v4.0’ software (GraphPad Software™).

Row | SMILES | Emax at 10 µM [%] | KCNQ2/3 stimulation at 10 μM [%] | activity towards the KCNQ2/3 receptor | EC50 [nM]
1 | Cc1cc(C)cc(C(C)Nc2noc3ncccc23)c1 (stereo not drawn) [Exemplary compound 4, N-(1-(3,5-dimethyl-phenyl)ethyl)-isoxazolo[5,4-b]pyridin-3-amine] | 65 | – | – | –
2 | FC(F)(F)Sc1ccc(CNc2noc3ccncc23)cc1 [Exemplary compound 12, N-(4-(trifluoromethylthio)benzyl)-isoxazolo[4,5-c]pyridin-3-amine] | 39 | 39 | still present | –
3 | CC(Nc1noc2cccnc12)c1ccc(SC(F)(F)F)cc1 (stereo not drawn) [Exemplary compound 13, N-(1-(4-(trifluoromethylthio)phenyl)-ethyl)isoxazolo[4,5-b]pyridin-3-amine] | 50 | – | – | –
4 | CC(Nc1noc2ncccc12)c1ccc(C(F)(F)F)cc1 (stereo not drawn) [Exemplary compound 1, N-(1-(4-(trifluoromethyl)phenyl)ethyl)-isoxazolo[5,4-b]pyridin-3-amine] | 43 | – | – | –
5 | FC(F)(F)Sc1ccc(CNc2noc3ccnc(Cl)c23)cc1 [Exemplary compound 25, 4-chloro-N-(4-(trifluoromethylthio)benzyl)-isoxazolo[4,5-c]pyridin-3-amine] | 19 | – | – | –
6 | Cc1cc(C)cc(C(C)Nc2noc3cnccc23)c1 (stereo not drawn) [Exemplary compound 15, N-(1-(3,5-dimethyl-phenyl)ethyl)-isoxazolo[5,4-c]pyridin-3-amine] | 73 | – | – | –
7 | FC(F)(F)Sc1ccc(CNc2noc3ccccc23)cc1 [E1, reference compound] | – | 75 | – | –
8 | Cc1cc(C)cc(C(C)Nc2noc3nc(C)ccc23)c1 (stereo not drawn) [Exemplary compound 22, N-(1-(3,5-dimethylphenyl)ethyl)-6-methyl-isoxazolo[5,4-b]pyridin-3-amine] | 49 | – | – | 231
9 | CC(Nc1noc2ncccc12)c1ccc(SC(F)(F)F)cc1 (stereo not drawn) [Exemplary compound 5, N-(1-(4-(trifluoromethylthio)phenyl)ethyl)-isoxazolo[5,4-b]pyridin-3-amine] | 97 | – | – | –
10 | Cc1cc(C)cc(C(C)Nc2noc3nc(C(F)(F)F)ccc23)c1 (stereo not drawn) [Exemplary compound 18, N-(1-(3,5-dimethylphenyl)ethyl)-6-(trifluoromethyl)isoxazolo[5,4-b]-pyridin-3-amine] | 43 | – | – | –
11 | CC(Nc1noc2ccncc12)c1ccc(SC(F)(F)F)cc1 (stereo not drawn) [Exemplary compound 17, N-(1-(4-(trifluoromethylthio)phenyl)ethyl)-isoxazolo[4,5-c]pyridin-3-amine] | 49 | – | – | 899
12 | FC(F)(F)Sc1ccc(CNc2noc3cccnc23)cc1 [Exemplary compound 9, N-(4-(trifluoromethylthio)benzyl)-isoxazolo[4,5-b]pyridin-3-amine] | 86 | 86 | still present | –
13 | FC(F)(F)Sc1ccc(CNc2noc3nc(C(F)(F)F)ccc23)cc1 [Exemplary compound 19, N-(4-(trifluoromethylthio)benzyl)-6-trifluoromethyl-isoxazolo[5,4-b]pyridin-3-amine] | 41 | – | – | –
14 | CC(Nc1noc2cnccc12)c1ccc(C(F)(F)F)cc1 (stereo not drawn) [Exemplary compound 14, N-(1-(4-(trifluoromethyl)phenyl)-ethyl)isoxazolo[5,4-c]pyridin-3-amine] | 78 | – | – | –
15 | Cc1cc(C)cc(C(C)Nc2noc3cccnc23)c1 (stereo not drawn) [Exemplary compound 10, N-(1-(3,5-dimethyl-phenyl)ethyl)-isoxazolo[4,5-b]pyridin-3-amine] | 27 | – | – | –
16 | Cc1cc(C)cc(C(C)Nc2noc3c(C(F)(F)F)nccc23)c1 (stereo not drawn) [Exemplary compound 21, N-(1-(3,5-dimethyl-phenyl)ethyl)-7-trifluoromethyl-isoxazolo[5,4-c]pyridin-3-amine] | 39 | – | – | –
17 | FC(F)(F)Sc1ccc(CNc2noc3nc4ccccc4cc23)cc1 [Exemplary compound 24, N-(4-(trifluoromethylthio)benzyl)-isoxazolo[5,4-b]quinolin-3-amine] | 38 | – | – | 411
18 | FC(F)(F)Sc1ccc(CNc2noc3c(C(F)(F)F)nccc23)cc1 [Exemplary compound 23, N-(4-(trifluoromethylthio)benzyl)-7-trifluoromethyl-isoxazolo[5,4-c]pyridin-3-amine] | 27 | – | – | –
19 | FC(F)(F)Sc1ccc(CNc2noc3ncccc23)cc1 [Exemplary compound 2, N-(4-(Trifluoromethylthio)benzyl)-isoxazolo[5,4-b]pyridin-3-amine] | 77 | 77 | still present | 1690
20 | Cc1cc(C)cc(C(C)Nc2noc3ccncc23)c1 (stereo not drawn) [Exemplary compound 16, N-(1-(3,5-dimethyl-phenyl)ethyl)-isoxazolo[4,5-c]pyridin-3-amine] | 15 | – | – | –
21 | FC(F)(F)Sc1ccc(CNc2noc3cnccc23)cc1 [Exemplary compound 6, N-(4-(trifluoromethylthio)benzyl)-isoxazolo[5,4-c]pyridin-3-amine] | 65 | 65 | still present | –
22 | Cc1cc(C)cc(CNc2noc3ncccc23)c1 [Exemplary compound 3, N-(3,5-dimethyl-benzyl)isoxazolo[5,4-b]pyridin-3-amine] | 34 | – | – | –
23 | Cc1ccc2c(NCc3ccc(SC(F)(F)F)cc3)noc2n1 [Exemplary compound 20, 6-methyl-N-(4-(trifluoromethylthio)benzyl)-isoxazolo[5,4-b]pyridin-3-amine] | 49 | – | – | –
24 | Cc1cc(C)cc(CNc2noc3cnccc23)c1 [Exemplary compound 7, N-(3,5-dimethyl-benzyl)isoxazolo[5,4-c]pyridin-3-amine] | 29 | – | – | –
